# Patent US20040176310A1, “Use of extracts and preparations from iris plants and tectorigenin as medicaments” (priority 2001, published 2004)
# What was measured:
# [1] = system: estrogen receptor-beta; assay: gene expression of estrogen receptor-beta in the prostate of male castrated rat; type: in vivo
# [2] = system: Nerve Growth Factor (NGF); assay: gene expression of Nerve Growth Factor (bladder); type: in vivo, rat
# Source text: Bladder tonus is largely influenced by nerve cells located in the bladder wall and other vegetative nerve cells. The “Nerve Growth Factor” (NGF) is an indicator for the local activity of the nerve cells.
# [3] = system: estrogen receptor of alpha-subtype; assay: gene expression of estrogen receptor alpha-subtype in the prostate of male castrated rat; type: in vivo
# [4] = system: estrogen receptor-alpha; assay: gene expression of estrogen receptor-alpha in the bladder of castrated rats; type: in vivo, rat
# [5] = system: prostate; assay: prostate regression / testosterone-induced prostate growth in castrated rats; type: in vivo, rat
# Source text: (§1) The prostate regression induced by castration could be antagonized by testosterone in experiments with rats.
# [6] = system: IGF1; assay: IGF1 gene expression in the prostate of castrated male rats; type: in vivo, rat
# Source text: as §1
SMILES,gene expression of the estrogen receptor-beta [1],gene expression of Nerve Growth Factor (NGF) [2],gene expression of the estrogen receptor of alpha-subtype [3],gene expression of the estrogen receptor-alpha [4],prostate regression induced by castration [5],gene expression of the growth factor IGF1 [6]
"C[C@]12CC[C@@H]3c4ccc(O)cc4CC[C@H]3[C@@H]1CC[C@@H]2O [estradiol, 17β-estradiol]",without having an effect,observed under neither estradiol nor testosterone,significantly inhibit,regulate down,,
C[C@]12CC[C@H]3[C@@H](CCC4=CC(=O)CC[C@@]43C)[C@@H]1CC[C@@H]2O [testosterone],,observed under neither estradiol nor testosterone,,,antagonized,regulated up
